Measurements published in patent US20140155445A1, “Compounds and Methods for Treating Cancer and Diseases of the Central Nervous System” (Osta Biotechnologies Inc., priority 2007, published 2014).

Columns and labels:
[1] = system: HCT-116 colorectal carcinoma; assay: Colorectal carcinoma model HCT-116 in SCID mice; format: in vivo, human
Description: Control groups received the vehicle alone.

HO-1 (rat spleen) = molecular target: T1, HO-1 (rat spleen) (Rattus norvegicus, UniProt P06762); assay: HO enzymatic activity in rat spleen microsomal fraction (CO formed from methemalbumin, gas chromatography); format: biochemical; conditions: rat spleen microsomes; average ± standard deviation of replicate experiments; read-out: IC50 HO-1 (rat spleen)/μM
T1 construct: Spleen microsomes were used as a source of HO-1; from tissue; host or cells: spleen microsomal fraction of adult male Sprague-Dawley rats
T1 sequence (P06762 1-289): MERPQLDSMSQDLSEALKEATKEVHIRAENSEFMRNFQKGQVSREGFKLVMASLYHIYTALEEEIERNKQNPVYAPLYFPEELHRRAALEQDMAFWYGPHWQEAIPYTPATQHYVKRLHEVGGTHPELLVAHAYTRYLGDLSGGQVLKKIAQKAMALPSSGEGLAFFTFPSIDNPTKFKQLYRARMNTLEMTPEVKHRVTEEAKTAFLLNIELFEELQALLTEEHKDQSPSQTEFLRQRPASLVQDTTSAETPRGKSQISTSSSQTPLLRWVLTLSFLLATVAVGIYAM

[2] = Pharmacokinetic evaluation of QC-199 in mouse plasma and brain, IP or oral; format: in vivo; conditions: for half-life: from Lambda z; for AUC: read-out: AUCall (0-12); for Cmax: mouse, male CD-1 mice
Procedure: (§1) Regular male CD1 mice, 6 weeks old, were obtained from Charles River Laboratories, St. Zotique, PQ, Canada. The mice weighed 22-28 g. The experiments were approved by the Animal Care Committee, McGill University, Montreal, Quebec. The animals were housed in individual cages and were fed standard rodent chow and water ad libitum. Mice weights were measured with a digital balance accurate to 0.05 g and then received QC-199 at the indicated doses either orally, or via i.p. injections or following i.v. slow infusion. In the case of i.v. injection or i.v. infusion, mice were anesthetized using isoflurane-based system (DISPOMED, MODUFLEX COMPACT NRB, 3975-0800-000). For the infusion, a mini pump (NE-1800, New Era Pump Systems, Inc.) was used to infuse the compound via the tail vein during a 2 h period. In one study, blood and brain tissue samples were collected at various time points after administration of QC-199 using EDTA tubing (Das Original S-Monovette EDTA KE/1.2 ml lot.9094102 and Needle for S-Monovette 22G lot. 8073401) via cardiac puncture and immediately stored at 4° C. Serum was collected after the samples were centrifuged 2200×, 4° C. for 20 minutes and stored at −80° C. until analysis. For the brain tissue collection, skin of mice was removed and brain was carefully dissected out from the skull, transferred into a Petri dish, briefly washed with ice-cold phosphate-buffered saline (PBS), and immediately stored at −80° C. until further analysis.
(§2) The assay of QC-199 in mouse plasma and brain samples was carried out using qualified LC/MS/MS assay methods.

[3] = Pharmacokinetic evaluation of QC-199 in mouse plasma, IV infusion; format: in vivo
Procedure: as §1, §2

[4] = male, CD-1, mouse, in vivo, IV infusion

**Q.** For Brc1ccc(CCC2(Cn3ccnc3)OCCO2)cc1.Cl [QC-56, 1-((2-(2-(4-Bromophenyl)ethyl)-1,3-dioxolan-2-yl)methyl)-1H-imidazole hydrochloride], which mouse mortality ([1]; 60 mg/kg, HCT-116 model (FIG. 25)) is on record?
**A.** but not QC-56, induced mortality

**Q.** And the “reduction of tumor volume at the time of sacrifice compared to control” value ([1]; QC-56 60 mg/kg/ip, 5-FU 60 mg/kg/ip reduced to 40 mg/kg)?
**A.** approximately 23%

**Q.** What about the IC50 (HO-1 (rat spleen)) of the same molecule?
**A.** 1.9 ± 0.2 µM

**Q.** Which “% Extrapolated AUC” value ([2]; brain, IP 60 mg/kg) does the source give for Brc1ccc(CCCCn2ccnc2)cc1.Cl [QC-199, 1-[4-(4-bromophenyl)butyl]-1H-imidazole hydrochloride] here?
**A.** 13%

**Q.** And the “AUC(0-inf)” value ([2]; brain, IP 60 mg/kg)?
**A.** 427 µg·h/g

**Q.** And the “AUCall (0-12)” value ([2]; brain, IP 60 mg/kg)?
**A.** 370 µg·h/g

**Q.** And the “% Extrapolated AUC” value ([2]; brain, Oral 60 mg/kg)?
**A.** 37%

**Q.** What about the “AUC(0-inf)” value ([2]; brain, Oral 60 mg/kg) of the same molecule?
**A.** 361 µg·h/g

**Q.** What about the “AUCall (0-12)” value ([2]; brain, Oral 60 mg/kg) of the same molecule?
**A.** 227 µg·h/g

**Q.** And the oral bioavailability ([2]; from oral-to-IP AUC ratios in brain and plasma)?
**A.** moderately high oral bioavailability

**Q.** What about the concentration at 5 min ([2]; male, CD-1, mouse, brain, 60 mg/kg, IP or oral administration, above the upper calibration range, read-out: brain tissue concentration at 5 min post-dose) of the same molecule?
**A.** > 10000 ng/g

**Q.** And the half-life ([2]; male, CD-1, mouse, in vivo, ip, 60 mg/kg, brain, IP 60 mg/kg)?
**A.** 4.3 h

**Q.** And the half-life ([2]; male, CD-1, mouse, in vivo, ip, 60 mg/kg, plasma, IP 60 mg/kg)?
**A.** 4.8 h

**Q.** What about the half-life ([2]; male, CD-1, mouse, in vivo, po, 60 mg/kg, brain, Oral 60 mg/kg) of the same molecule?
**A.** 8.6 h

**Q.** What about the half-life ([2]; male, CD-1, mouse, in vivo, po, 60 mg/kg, plasma, Oral 60 mg/kg) of the same molecule?
**A.** 7.1 h

**Q.** And the Tmax ([2]; male, CD-1, mouse, in vivo, brain, IP 60 mg/kg)?
**A.** 0.167 h

**Q.** And the Tmax ([2]; male, CD-1, mouse, in vivo, brain, Oral 60 mg/kg)?
**A.** 0.167 h

**Q.** What about the AUC(0-inf) ([2]; male, CD-1, mouse, in vivo, plasma, IP 60 mg/kg, read-out: AUC0-inf) of the same molecule?
**A.** 85000 ng·h/mL

**Q.** And the AUC ([2]; male, CD-1, mouse, in vivo, plasma, IP 60 mg/kg)?
**A.** 72000 ng·h/mL

**Q.** And the AUC(0-inf) ([2]; male, CD-1, mouse, in vivo, plasma, Oral 60 mg/kg, read-out: AUC0-inf)?
**A.** 67000 ng·h/mL

**Q.** What about the AUC ([2]; male, CD-1, mouse, in vivo, plasma, Oral 60 mg/kg) of the same molecule?
**A.** 47000 ng·h/mL

**Q.** And the Cmax ([2]; in vivo, brain, IP 60 mg/kg)?
**A.** 79000 ± 2200 ng/g

**Q.** What about the Cmax ([2]; in vivo, brain, Oral 60 mg/kg) of the same molecule?
**A.** 39000 ± 2700 ng/g

**Q.** And the Cmax ([2]; in vivo, plasma, IP 60 mg/kg)?
**A.** 20000 ± 1200 ng/mL

**Q.** And the Cmax ([2]; in vivo, plasma, Oral 60 mg/kg)?
**A.** 9100 ± 800 ng/mL

**Q.** What about the AUC_%Extrap_obs ([2]; plasma, IP 60 mg/kg) of the same molecule?
**A.** 16%

**Q.** And the AUC_%Extrap_obs ([2]; plasma, Oral 60 mg/kg)?
**A.** 30%

**Q.** What about the “AUC_%Extrap_obs” value ([3]; IV infusion) of the same molecule?
**A.** 37%

**Q.** What about the AUC(0-inf) [3, 4] of the same molecule?
**A.** 224000 ng·h/mL

**Q.** What about the Tmax [3, 4] of the same molecule?
**A.** 3 h

**Q.** And the half-life ([3]; male, CD-1, mouse, in vivo, IV infusion, from Lambda z, read-out: T½ (converted))?
**A.** 18 h

**Q.** What about the AUC ([3]; male, CD-1, mouse, in vivo, IV infusion, read-out: AUCall (0-24 h)) of the same molecule?
**A.** 141000 ng·h/mL

**Q.** And the Cmax ([3]; mouse, 90 min IV infusion, male CD-1 mice)?
**A.** 8000 ng/mL
